Each structure is given as a SMILES string.

Holding throughout (format): in vivo
In test [1] the test system is Panonychus citri. Briefly: Panonychus citri test; outdoor spray treatment (METTCI), orange trees. The note with it: METTCI on C. sinensis. An excerpt: Panonychus citri test; outdoor spray treatment (METTCI)
To produce an appropriate active ingredient formulation, 1 part by weight of active ingredient is mixed with the stated amounts of water to the desired concentration. Added to the spray liquor is 0.1% a.i. rapeseed oil methyl ester.
Three two-year-old orange trees (Citrus sinensis) affected by all stages of the citrus red mite (Panonychus citri) are sprayed with an active ingredient formulation of each desired concentration. Application is effected with a motorized backpack sprayer. In accordance with common practice, the water application rate is 1000 l/Ha. One spray application is conducted in each case.
(§1) After the desired time, the remaining mites per leaf are counted and calculated as the efficacy by the Abbott formula:
(§2) B=treated plots K=untreated control plots

Test [2] relates to Panonychus citri. Briefly: Panonychus citri test; outdoor spray treatment (METTCI), lemon trees. The note with it: METTCI on C. limon.
Description: (§3) Panonychus citri Test; Outdoor Spray Treatment (METTCI)
(§4) To produce an appropriate active ingredient formulation, 1 part by weight of active ingredient is mixed with the stated amounts of water to the desired concentration. Added to the spray liquor is 0.1% a.i. Crovol.
Three two-year-old lemon trees (Citrus limon) affected by all stages of the citrus red mite (Panonychus citri) are sprayed with an active ingredient formulation of each desired concentration. Application is effected with a motorized backpack sprayer. In accordance with common practice, the water application rate is 1000 l/Ha. One spray application is conducted in each case.
as §1, §2

Test [3] relates to Panonychus citri. Briefly: Panonychus citri test; outdoor spray treatment (METTCI), satsuma trees. The note with it: METTCI on C. unshiu.
Description: as §3, §4
Three 5-year-old satsuma trees (Citrus unshiu) affected by all stages of the citrus red mite (Panonychus citri) are sprayed with an active ingredient formulation of each desired concentration. Application is effected with a motorized backpack sprayer. In accordance with common practice, the water application rate is 1850 l/Ha. One spray application is conducted in each case.
as §1, §2

Test [4] deals with Brevipalpus phoenicis. Briefly: Brevipalpus phoenicis test; outdoor spray treatment (BRVPPH), orange trees. To be noted: BRVPPH on C. sinensis.
Description: Brevipalpus phoenicis Test; Outdoor Spray Treatment (BRVPPH)
as §4
Three eight-year-old orange trees (Citrus sinensis) affected by all stages of the false spider mite (Brevipalpus phoenicis) are sprayed with an active ingredient formulation of each desired concentration. Application is effected with a motorized backpack sprayer. In accordance with common practice, the water application rate is 1000 l/Ha. One spray application is conducted in each case.
as §1, §2

In test [5] the test system is Eutetranychus anneckei. Briefly: Eutetranychus anneckei test; outdoor spray treatment (EUTEOR), orange trees. To be noted: EUTEOR on C. sinensis.
Description: Eutetranychus anneckei Test; Outdoor Spray Treatment (EUTEOR)
as §4
Three two-year-old orange trees (Citrus sinensis) affected by all stages of the oriental spider mite (Eutetranychus anneckei) are sprayed with an active ingredient formulation of each desired concentration. Application is effected with a motorized backpack sprayer. In accordance with common practice, the water application rate is 1000 l/Ha. One spray application is conducted in each case.
as §1, §2

The subject of test [6] is Phyllocoptruta oleivora. Briefly: Phyllocoptruta oleivora test; outdoor spray treatment (PHYUOL), orange trees. To be noted: PHYUOL on C. sinensis.
Description: Phyllocoptruta oleivora Test; Outdoor Spray Treatment (PHYUOL)
as §4
Three 15-year-old orange trees (Citrus sinensis) affected by all stages of the citrus rust mite (Phyllocoptruta oleivora) are sprayed with an active ingredient formulation of each desired concentration. Application is effected with a motorized backpack sprayer. In accordance with common practice, the water application rate is 1000 l/Ha. One spray application is conducted in each case.
as §1, §2

Setting [7] is: 100 g ai/ha/mch, + Crovol 0.1%, 7 Dat.
[8] abbreviates: 100 g ai/ha/mch, + Crovol 0.1%, 14 Dat.

For `CCC(C)(C)C(=O)OC1=C(c2ccc(Cl)cc2Cl)C(=O)OC12CCCCC2` [Spirodiclofen, reference compound], the “Efficacy (% Abbott)” value in test [1] (48 g ai/ha/mch, 1 Dat) was 29 % Abbott; in test [1] (48 g ai/ha/mch, 5 Dat) it was 90 % Abbott; in test [2] (48 g ai/ha/mch, 6 Dat), 58 % Abbott; in test [2] (48 g ai/ha/mch, 23 Dat), 100 % Abbott; in test [3] (144 g ai/ha/mch, 4 Dat), 70.7 % Abbott; in test [3] (144 g ai/ha/mch, 7 Dat), 85.2 % Abbott. Besides, in test [3] (144 g ai/ha/mch, 14 Dat), the “Efficacy (% Abbott)” value turned out to be 78 % Abbott.

Regarding `Cn1nc(C(F)(F)C(F)(F)F)c(C(F)(F)F)c1C(=O)Nc1ccc(Cl)c(C(=O)NCc2ccccc2)c1` [Compound (I)], the “Efficacy (% Abbott)” value in test [1] (50 g ai/ha/mch, + RME 0.1%, 1 Dat) is on record as 85 % Abbott; in test [1] (50 g ai/ha/mch, + RME 0.1%, 5 Dat), 99 % Abbott; in test [1] (100 g ai/ha/mch, + RME 0.1%, 1 Dat) it was 99 % Abbott; in test [1] (100 g ai/ha/mch, + RME 0.1%, 5 Dat), 100 % Abbott; in test [4] (100 g ai/ha/mch, + Crovol 0.1%, 3 Dat), 88.4 % Abbott; in test [4] (setting [7]), 95 % Abbott. The “Efficacy (% Abbott)” value in test [4] (setting [8]) came out at 100 % Abbott; in test [4] (100 g ai/ha/mch, + Crovol 0.1%, 21 Dat) it was 100 % Abbott; in test [4] (100 g ai/ha/mch, + Crovol 0.1%, 49 Dat), 92.7 % Abbott; in test [4] (100 g ai/ha/mch, + Crovol 0.1%, 60 Dat) it was 100 % Abbott; in test [2] (100 g ai/ha/mch, + Crovol 0.1%, 6 Dat), 90 % Abbott; in test [2] (100 g ai/ha/mch, + Crovol 0.1%, 23 Dat) it was 99 % Abbott. In addition, the “Efficacy (% Abbott)” value is 100 % Abbott in test [3] (100 g ai/ha/mch, + Crovol 0.1%, 4 Dat); 98.1 % Abbott in test [3] (setting [7]); 97.6 % Abbott in test [3] (setting [8]); 99 % Abbott in test [5] (100 g ai/ha/mch, + Crovol 0.1%, 8 Dat); 99 % Abbott in test [5] (100 g ai/ha/mch, + Crovol 0.1%, 16 Dat); 100 % Abbott in test [5] (100 g ai/ha/mch, + Crovol 0.1%, 22 Dat). For the same molecule, the “Efficacy (% Abbott)” value in test [5] (100 g ai/ha/mch, + Crovol 0.1%, 30 Dat) was found to be 98 % Abbott; in test [5] (100 g ai/ha/mch, + Crovol 0.1%, 36 Dat), 93 % Abbott; in test [6] (75 g ai/ha/mch, + Crovol 0.1%, 5 Dat) it was 36 % Abbott; in test [6] (75 g ai/ha/mch, + Crovol 0.1%, 13 Dat), 45 % Abbott; in test [6] (75 g ai/ha/mch, + Crovol 0.1%, 19 Dat), 64 % Abbott; in test [6] (75 g ai/ha/mch, + Crovol 0.1%, 27 Dat) it was 72 % Abbott. Moreover, the “Efficacy (% Abbott)” value in test [6] (100 g ai/ha/mch, + Crovol 0.1%, 5 Dat) is recorded as 77 % Abbott; in test [6] (100 g ai/ha/mch, + Crovol 0.1%, 13 Dat), 84 % Abbott; in test [6] (100 g ai/ha/mch, + Crovol 0.1%, 19 Dat), 94 % Abbott; in test [6] (100 g ai/ha/mch, + Crovol 0.1%, 27 Dat), 96 % Abbott.

Take `Cc1nn(C)c(/C(OC(=O)C(C)(C)C)=C(\C#N)c2ccc(C(C)(C)C)cc2)c1C` [Cyenopyrafen, reference compound]: the “Efficacy (% Abbott)” value in test [4] (150 g ai/ha/mch, 3 Dat) is given as 74.4 % Abbott; in test [4] (150 g ai/ha/mch, 7 Dat), 92.5 % Abbott; in test [4] (150 g ai/ha/mch, 14 Dat) it was 94.7 % Abbott; in test [4] (150 g ai/ha/mch, 21 Dat) it was 100 % Abbott; in test [4] (150 g ai/ha/mch, 49 Dat) it was 78 % Abbott; in test [4] (150 g ai/ha/mch, 60 Dat), 97.6 % Abbott. The “Efficacy (% Abbott)” value in test [5] (150 g ai/ha/mch, 8 Dat) was determined as 100 % Abbott; in test [5] (150 g ai/ha/mch, 16 Dat), 96 % Abbott; in test [5] (150 g ai/ha/mch, 22 Dat), 100 % Abbott; in test [5] (150 g ai/ha/mch, 30 Dat), 83 % Abbott; in test [5] (150 g ai/ha/mch, 36 Dat), 63 % Abbott; in test [6] (150 g ai/ha/mch, 5 Dat) it was 32 % Abbott. Besides, the “Efficacy (% Abbott)” value in test [6] (150 g ai/ha/mch, 13 Dat) is reported as 29 % Abbott; in test [6] (150 g ai/ha/mch, 19 Dat) it was 31 % Abbott; in test [6] (150 g ai/ha/mch, 27 Dat), 32 % Abbott.

Source of the values: US20150245612A1, “ACTIVE INGREDIENT FOR CONTROLLING SPIDER MITES” (BAYER CROPSCIENCE AG, priority 2014, published 2015).
